The record followed here is ChEMBL document CHEMBL1201862, “PubChem BioAssay data set” (2004).

By EC50 is commonly meant the concentration at which the effect is half-maximal. The AC50 is the midpoint of the concentration-response curve, whichever way the signal moves.

The source made the active and inactive calls.

The target in data set [1] is Luciferin 4-monooxygenase (Photinus pyralis, UniProt P08659). The data set can be described thus: inhibition of purified Photinus pyralis luciferase – biochemical, luminescence, dose response (AID 1891).
Chain of Luciferin 4-monooxygenase (P08659 whole entry): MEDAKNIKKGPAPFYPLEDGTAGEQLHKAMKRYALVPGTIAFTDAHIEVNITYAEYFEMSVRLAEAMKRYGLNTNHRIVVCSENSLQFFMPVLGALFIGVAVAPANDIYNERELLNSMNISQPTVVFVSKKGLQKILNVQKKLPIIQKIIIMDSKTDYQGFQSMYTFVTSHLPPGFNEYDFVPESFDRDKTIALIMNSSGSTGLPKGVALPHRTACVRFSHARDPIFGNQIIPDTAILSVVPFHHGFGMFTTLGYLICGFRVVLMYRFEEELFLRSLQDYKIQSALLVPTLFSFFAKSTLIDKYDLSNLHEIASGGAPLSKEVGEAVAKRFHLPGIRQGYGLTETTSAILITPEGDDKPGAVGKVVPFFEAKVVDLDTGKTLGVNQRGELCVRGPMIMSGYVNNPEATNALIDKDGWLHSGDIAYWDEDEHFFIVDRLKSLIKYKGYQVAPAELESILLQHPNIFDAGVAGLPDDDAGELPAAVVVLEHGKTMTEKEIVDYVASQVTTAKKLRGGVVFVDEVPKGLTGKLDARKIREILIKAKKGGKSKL
Data set [2] in a line: Luminescence Cell-Based Dose Confirmation HTS to Identify Inhibitors of Platelet Dense Granule Release. [Related pubchem assays: 1663 (Primary HTS), 1678 (Summary of Project)]. Format: functional.
For data set [3], the target named is Cytochrome P450 2C19 (Homo sapiens, UniProt P33261). Kind of data set: Cytochrome panel assay with activity outcomes. Panel member name: p450-cyp2c19 Compounds with AC50 equal or less than 10 uM are considered active. Format: functional.
Chain of Cytochrome P450 2C19 (P33261 whole entry): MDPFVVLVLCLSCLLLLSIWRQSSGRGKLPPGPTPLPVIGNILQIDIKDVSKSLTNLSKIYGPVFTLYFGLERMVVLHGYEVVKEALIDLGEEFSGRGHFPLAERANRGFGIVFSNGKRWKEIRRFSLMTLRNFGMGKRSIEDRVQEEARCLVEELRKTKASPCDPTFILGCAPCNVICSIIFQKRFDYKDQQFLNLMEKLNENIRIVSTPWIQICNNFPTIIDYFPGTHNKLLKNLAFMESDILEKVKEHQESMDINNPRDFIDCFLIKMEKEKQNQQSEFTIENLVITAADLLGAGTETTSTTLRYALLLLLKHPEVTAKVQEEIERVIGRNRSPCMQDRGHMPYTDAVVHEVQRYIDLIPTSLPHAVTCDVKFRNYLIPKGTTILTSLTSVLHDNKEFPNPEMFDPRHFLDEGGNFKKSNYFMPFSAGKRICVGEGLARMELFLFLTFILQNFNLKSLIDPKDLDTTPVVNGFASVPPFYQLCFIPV
The target in data set [4] is T1, Cytochrome P450 1A2 (Homo sapiens, UniProt P05177).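 Also: PubChem cytochrome P450 panel assay, CYP1A2 panel member.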
T1 sequence (P05177 whole entry): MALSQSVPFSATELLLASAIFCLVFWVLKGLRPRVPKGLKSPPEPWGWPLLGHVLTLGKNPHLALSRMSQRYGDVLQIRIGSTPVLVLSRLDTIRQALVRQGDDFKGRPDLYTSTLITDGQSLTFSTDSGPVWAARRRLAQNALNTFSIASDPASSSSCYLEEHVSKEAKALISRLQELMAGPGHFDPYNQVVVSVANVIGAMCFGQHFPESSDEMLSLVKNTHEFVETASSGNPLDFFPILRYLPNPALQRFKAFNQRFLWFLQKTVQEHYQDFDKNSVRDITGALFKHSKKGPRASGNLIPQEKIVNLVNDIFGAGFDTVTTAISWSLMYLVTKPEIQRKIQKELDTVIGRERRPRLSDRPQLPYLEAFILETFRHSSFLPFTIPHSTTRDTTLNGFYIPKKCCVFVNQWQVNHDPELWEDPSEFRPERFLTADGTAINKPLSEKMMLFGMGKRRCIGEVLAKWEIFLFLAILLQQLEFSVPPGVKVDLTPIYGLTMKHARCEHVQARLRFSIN

For data set [5], the target named is Cytochrome P450 3A4 (Homo sapiens, UniProt P08684).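 Also: CYP3A4 tested as one member of a cytochrome P450 panel screen.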
Chain of Cytochrome P450 3A4 (P08684 whole entry): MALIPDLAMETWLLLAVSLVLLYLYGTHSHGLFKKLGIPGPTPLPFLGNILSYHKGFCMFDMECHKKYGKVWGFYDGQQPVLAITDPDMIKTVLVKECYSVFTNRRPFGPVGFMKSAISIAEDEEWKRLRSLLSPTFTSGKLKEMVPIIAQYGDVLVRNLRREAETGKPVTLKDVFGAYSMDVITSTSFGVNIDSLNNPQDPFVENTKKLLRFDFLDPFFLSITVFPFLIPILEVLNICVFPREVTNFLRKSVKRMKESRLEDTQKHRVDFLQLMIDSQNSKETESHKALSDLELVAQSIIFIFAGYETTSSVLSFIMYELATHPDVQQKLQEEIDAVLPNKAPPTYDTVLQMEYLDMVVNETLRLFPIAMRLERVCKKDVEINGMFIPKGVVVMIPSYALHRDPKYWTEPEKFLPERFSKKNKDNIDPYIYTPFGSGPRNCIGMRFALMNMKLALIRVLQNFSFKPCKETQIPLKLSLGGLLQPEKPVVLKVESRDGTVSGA
Data set [6] is described as follows: Trypanosoma cruzi growth suppression in host cells – NIH3T3 host cells, beta-gal luminescence, confirmation (AID 2044).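 Also: intracellular parasites grown in NIH/3T3 mouse fibroblasts as host cells; luminescent beta-galactosidase reporter signal from transgenic T. cruzi replicating inside host cells; inhibitors lower the luminescence signal.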 The format is functional, cell-based.
Data set [7] is described as follows: NIH3T3 cell viability loss – ATP luminescence, mouse fibroblasts, counter-screen, dose response (AID 2010).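 Also: cells exposed to compound for about 90 hours before reading.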 The format is functional, cell-based.
Data set [8] deals with T2, Replicative DNA helicase DnaB (Mycobacterium tuberculosis, UniProt P9WMR3).
T2 sequence (P9WMR3 whole entry): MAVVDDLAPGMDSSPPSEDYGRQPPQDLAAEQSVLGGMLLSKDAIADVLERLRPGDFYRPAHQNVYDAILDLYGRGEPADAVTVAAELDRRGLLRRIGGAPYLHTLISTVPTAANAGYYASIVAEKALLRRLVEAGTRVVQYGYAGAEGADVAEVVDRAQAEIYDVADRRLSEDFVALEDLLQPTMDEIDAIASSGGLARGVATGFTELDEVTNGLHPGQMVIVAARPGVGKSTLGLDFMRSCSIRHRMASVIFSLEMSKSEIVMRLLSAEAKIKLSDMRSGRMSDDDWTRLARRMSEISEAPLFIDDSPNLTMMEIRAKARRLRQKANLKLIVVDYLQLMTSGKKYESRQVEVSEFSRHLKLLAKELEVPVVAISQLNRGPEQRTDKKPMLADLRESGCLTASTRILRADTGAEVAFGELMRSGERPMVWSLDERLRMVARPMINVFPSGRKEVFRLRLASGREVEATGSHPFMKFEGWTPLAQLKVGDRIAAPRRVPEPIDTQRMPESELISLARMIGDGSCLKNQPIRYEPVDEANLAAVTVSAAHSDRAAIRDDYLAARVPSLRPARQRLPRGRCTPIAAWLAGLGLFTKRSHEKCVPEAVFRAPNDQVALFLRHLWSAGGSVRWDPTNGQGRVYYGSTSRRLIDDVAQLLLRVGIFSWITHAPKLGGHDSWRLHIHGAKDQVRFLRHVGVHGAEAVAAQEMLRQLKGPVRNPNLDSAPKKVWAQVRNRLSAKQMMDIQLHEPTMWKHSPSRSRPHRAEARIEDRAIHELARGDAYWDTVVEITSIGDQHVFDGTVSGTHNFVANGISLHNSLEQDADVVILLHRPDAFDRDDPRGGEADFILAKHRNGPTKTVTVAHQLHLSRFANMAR
Kind of data set: DnaB intein splicing inhibitors, dose response, biochemical, cell-free fluorescence (AID 449749). The format is functional.

Data set [9] has as its target T3, Protein RecA (Mycobacterium tuberculosis, UniProt P9WHJ3).
T3 sequence (P9WHJ3 whole entry): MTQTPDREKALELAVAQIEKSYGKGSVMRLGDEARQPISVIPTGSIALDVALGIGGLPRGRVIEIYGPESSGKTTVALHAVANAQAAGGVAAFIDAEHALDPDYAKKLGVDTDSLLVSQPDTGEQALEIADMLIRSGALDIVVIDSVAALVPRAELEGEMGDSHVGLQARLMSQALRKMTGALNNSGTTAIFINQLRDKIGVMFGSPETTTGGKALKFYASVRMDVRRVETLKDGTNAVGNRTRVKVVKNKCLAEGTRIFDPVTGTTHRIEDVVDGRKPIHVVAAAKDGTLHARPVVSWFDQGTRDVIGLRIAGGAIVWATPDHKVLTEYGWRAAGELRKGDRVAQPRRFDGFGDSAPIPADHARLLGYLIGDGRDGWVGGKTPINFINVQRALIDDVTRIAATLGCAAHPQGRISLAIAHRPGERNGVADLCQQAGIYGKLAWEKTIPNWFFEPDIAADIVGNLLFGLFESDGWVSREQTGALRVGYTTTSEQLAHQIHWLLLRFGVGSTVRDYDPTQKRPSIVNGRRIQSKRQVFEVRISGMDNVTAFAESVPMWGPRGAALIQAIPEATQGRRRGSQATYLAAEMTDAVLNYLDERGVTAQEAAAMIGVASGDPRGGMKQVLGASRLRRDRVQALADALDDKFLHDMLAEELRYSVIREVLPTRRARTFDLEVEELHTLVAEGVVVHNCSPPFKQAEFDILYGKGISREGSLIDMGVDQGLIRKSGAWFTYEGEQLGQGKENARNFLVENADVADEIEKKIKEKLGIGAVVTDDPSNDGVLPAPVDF
The data set can be described thus: Fluorescence Cell-Free Homogeneous Dose Retest to Identify Inhibitors of RecA-Intein Splicing Activity. [Related pubchem assays (depositor defined):AID2097, AID2223, AID489010, AID492950]. Format: functional.

The subject of data set [10] is Streptococcus sp. 'group A'. The data set can be described thus: Streptococcus pyogenes SK(-)GAS viability under kanamycin – luminescence, BacTiterGlo, confirmation, counter-screen for streptokinase expression inhibitor project, dose response (AID 1900). Format: functional, organism-based.
The target in data set [11] is T4, Streptokinase A (Streptococcus pyogenes serotype M1, UniProt P10520).
T4 sequence (P10520 whole entry): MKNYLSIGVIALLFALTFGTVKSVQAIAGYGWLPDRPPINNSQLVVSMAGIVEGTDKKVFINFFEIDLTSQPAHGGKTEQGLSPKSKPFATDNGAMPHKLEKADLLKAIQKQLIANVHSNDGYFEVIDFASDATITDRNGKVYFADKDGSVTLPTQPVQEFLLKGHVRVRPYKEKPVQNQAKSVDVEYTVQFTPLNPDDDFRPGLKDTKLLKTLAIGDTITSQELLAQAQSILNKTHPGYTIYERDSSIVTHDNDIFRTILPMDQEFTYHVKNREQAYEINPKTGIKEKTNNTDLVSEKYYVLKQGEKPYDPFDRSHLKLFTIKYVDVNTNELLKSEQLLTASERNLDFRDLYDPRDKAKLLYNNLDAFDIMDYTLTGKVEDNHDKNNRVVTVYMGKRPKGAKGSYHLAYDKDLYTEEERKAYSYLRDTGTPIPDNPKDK
Kind of data set: viability-normalized secreted streptokinase activity reduction – plasminogen activation absorbance, OD405, dose response (AID 1914).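 Also: secreted streptokinase activity via plasminogen activation per viability signal from cell pellet.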 Format: functional, Streptococcus pyogenes M1 GAS.

Data set [12] has as its system Streptococcus. The data set can be described thus: GAS UMAA2166 growth inhibition – luminescence, BacTiterGlo, counter-screen for streptokinase expression inhibitor project, dose response (AID 1915).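 Also: potency for reduction of bacterial viability or growth.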 Format: functional, organism-based. (In general: The purpose of a counterscreen is to sort out artefacts and off-target activity.)

For `CCOc1ccc(N2C(=O)CC(Sc3nc4ccc(OCC)cc4s3)C2=O)cc1` (stereo unspecified), the EC50 in data set [1] and in [2] was > 112 µM (not active) in each case.

Consider `O=C(Nc1ccccc1)N1CC[C@@]2(CCCN(C(=O)c3cc(C(F)(F)F)cc(C(F)(F)F)c3)C2)C1`, for which the AC50 entry in data set [3] is “inconclusive”; in data set [4] it was 25.1 µM (inconclusive); in data set [5] it was 12.6 µM (inconclusive).

Regarding `Cn1c(N)nc2c(nc(OCc3ccccc3)n2[C@@H]2O[C@H](CO)[C@@H](O)[C@@H]2O)c1=O`, the AC50 in data set [4] was 0.00251 µM (inconclusive).

With `COc1ccccc1CC(=O)NNC(=O)CN(C)S(=O)(=O)c1ccc(Cl)cc1`, the concentration for a half-maximal effect (EC50) in data set [1] and in [2] was > 112 µM (not active) in each case.

As to `CCOc1ccc(CN2CCN(CC3=Cc4cccc(OC)c4OC3)CC2CCO)cc1` (stereo unspecified), the EC50 in data set [6] is 0.303 µM (active); in data set [7], > 60 µM (not active); in [9], > 380 µM (inactive). For the same compound, in data set [8], the AC50 was > 380 µM (inactive).

Turning to `CCOC1OC2C(CO)OC(n3cnc4c(N)ncnc43)C2O1` (stereo unspecified), the EC50 in data set [1] was > 112 µM (not active); in data set [2] it was 6.37 µM (active).

With `O=C(NC(c1ccccc1)c1ccccc1)c1ccc(O)nn1`, the EC50 in data set [1] was > 112 µM (not active); in [2], 5.32 µM (active).

As for `CC1(c2ccccc2)NC(=O)N(CC(=O)N2CCN(S(=O)(=O)c3ccccc3[N+](=O)[O-])CC2)C1=O` (stereo unspecified), the EC50 in data set [1] and in data set [2] was > 112 µM (not active) throughout.

For the compound `CC(C)c1ccc(NC(=O)NC(C)c2ccc3c(c2)OCO3)cc1` (stereo unspecified), the EC50 in data set [10], in [11] and in data set [12] was > 150 µM (not active) each time.

`COc1cc(C[C@H]2C(=O)OC[C@@H]2Cc2ccc(OC)c(OC)c2)ccc1O` [ARCTIGENIN]: the concentration at half-maximal activity (AC50) in [3] (read-out: AC50) was 0.00251 µM (inconclusive); in data set [4], 31.6 µM (inconclusive).

Consider `O=C(c1nc2ccc([N+](=O)[O-])cc2nc1O)[C@@H](O)c1ccc2c(c1)OCO2`, for which, in data set [4], the AC50 is 3.16 µM (inconclusive).

Take `Cc1ccc(Oc2nc3ccccn3c(=O)c2/C=C(\C#N)C(=O)NC2CCS(=O)(=O)C2)cc1` (stereo unspecified): the EC50 in data set [1] was > 112 µM (not active); in data set [2], 8.55 µM (active).

In the case of `C=C(C)CC1(NC(C)c2ccccc2)CCCCC1` (stereo unspecified), the EC50 in data set [1] and in [2] was > 112 µM (not active) each time.

As to `CC(=O)c1ccc(NC(S)=NC(C)CCc2ccccc2)cc1` (stereo unspecified), the EC50 in data set [1] and in [2] was > 112 µM (not active) each time.

Take `CC(C)CCC(CCNCc1ccccn1)c1ccc(Cl)cc1` (stereo unspecified): the EC50 in data set [10] was 7.65 µM (active); in data set [11], > 150 µM (not active); in data set [12] it was 132 µM (active).

For the compound `COc1ccc(NC(=O)N2CC[C@@]3(CCCN(C(C)=O)C3)C2)cc1`, in data set [4], the AC50 was 39.8 µM (inconclusive).

Take `COc1ccc(NC(=O)CN2CCN(CC(=O)Nc3ccccc3Cl)CC2)cc1`: the AC50 in data set [4] was 25.1 µM (inconclusive).

Consider `O=C(NNS(=O)(=O)c1ccccc1)c1cccnc1`, for which the EC50 in data set [1] and in [2] was > 112 µM (not active) in each case. Moreover, the AC50 in data set [5] is 3.98 µM (inconclusive).

Regarding `CCOC(=O)c1c(NC(=S)N2CCN(C)CC2)sc(C)c1-c1ccccc1`, in [11], the EC50 is 22.4 µM (active).

With `CC(C)Oc1ccc(CNC(=O)c2ccc3c(c2)N(C)CCS3)cc1`, the EC50 was 20.4 µM (active) in [1] and > 112 µM (not active) in data set [2].

Consider `CCN(CC)C(=O)CSc1nnc(-c2ccco2)n1N`, for which the AC50 in data set [4] is 17.8 µM (inconclusive).

For the compound `O=C(Cn1nc(C(=O)O)c2ccccc2c1=O)NCC1CCCO1` (stereo unspecified), the EC50 in data set [1] and in data set [2] was > 112 µM (not active) in each case.

`O=c1c(-c2ccc(Cl)cc2)[n+]([O-])c2ccccc2n1OCc1ccccn1`: the figures for the AC50 in data set [3] (read-out: AC50), in data set [4] and in data set [5] were 2.82 µM (inconclusive), 1.26 µM (inconclusive) and 7.08 µM (inconclusive), respectively.

Take `Nc1c(NC=O)c(=O)n(Cc2ccccc2)c(=O)n1Cc1ccccc1`: the EC50 in data set [1] and in [2] was > 112 µM (not active) throughout.

With `COC(=O)c1[nH]c2cccc(OC)c2c1NC(=O)CN1CCOCC1`, the EC50 in [1] and in data set [2] was > 112 µM (not active) in each case.

With `COc1ccc(N2CCN(CCNC(=O)c3c(C)cc(=O)oc3C)CC2)cc1`, the results for the AC50 in data set [4] and in data set [5] were 25.1 µM (inconclusive) and 14.1 µM (inconclusive), respectively.

For the compound `COc1cc(C2NC(=O)NC(O)(C(F)(F)F)C2C(=O)c2ccc(Cl)cc2)ccc1O` (stereo unspecified), the AC50 is 11.2 µM (inconclusive) in [3] (read-out: AC50), 39.8 µM (inconclusive) in data set [4] and 15.8 µM (inconclusive) in [5].
